Source: ChEMBL document CHEMBL3992518, “Peptide Macrocycle Inhibitor of Coagulation Factor XII with Subnanomolar Affinity and High Target Selectivity” (J Med Chem, 2017)
Active and inactive are the calls of the source. The calls are words filed in the database; no cut-off is given here.

Legend:
Coagulation factor XII = molecular target: T1, Coagulation factor XII (Homo sapiens, UniProt P00748); test: Inhibition of human beta factor 12a using fluorogenic substrate Boc-Gln-Gly-Arg-AMC preincubated for 10 mins followed by addition of substrate measured every min for 30 mins
T1 sequence (P00748 whole entry): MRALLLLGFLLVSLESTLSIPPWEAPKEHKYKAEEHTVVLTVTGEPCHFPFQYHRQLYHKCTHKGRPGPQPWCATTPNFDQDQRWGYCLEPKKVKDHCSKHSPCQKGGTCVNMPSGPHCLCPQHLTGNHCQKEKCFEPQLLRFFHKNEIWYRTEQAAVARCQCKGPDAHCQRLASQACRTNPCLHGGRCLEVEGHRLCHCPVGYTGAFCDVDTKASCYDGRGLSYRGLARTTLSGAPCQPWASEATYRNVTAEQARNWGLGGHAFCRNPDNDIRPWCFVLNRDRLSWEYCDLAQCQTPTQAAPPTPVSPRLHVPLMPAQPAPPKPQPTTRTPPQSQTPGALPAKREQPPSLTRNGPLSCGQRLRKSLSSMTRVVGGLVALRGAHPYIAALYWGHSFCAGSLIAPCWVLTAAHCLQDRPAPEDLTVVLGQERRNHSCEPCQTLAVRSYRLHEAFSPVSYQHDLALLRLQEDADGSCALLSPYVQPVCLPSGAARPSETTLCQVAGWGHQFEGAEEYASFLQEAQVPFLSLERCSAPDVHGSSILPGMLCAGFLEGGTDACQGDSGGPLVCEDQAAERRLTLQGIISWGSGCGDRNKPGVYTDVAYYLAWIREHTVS

Homo sapiens = species on record: Homo sapiens; test: Inhibition of human trypsin at 40 uM using fluorogenic substrate Z-Gly-Gly-Arg-AMC
Plasma kallikrein = Plasma kallikrein (Homo sapiens, UniProt P03952); test: Inhibition of human plasma kallikrein at 40 uM using fluorogenic substrate Z-Phe-Arg-AMC
Plasma [1] = test: Anticoagulant activity in human plasma assessed as concentration required to double activated partial thromboplastin time by coagulation analyser; assay type: functional
Plasma [2] = test: Anticoagulant activity in human plasma assessed as change in prothrombin time up to 40 uM by coagulation analyser; assay type: functional, cell-free
[3] = Half life in human citrated plasma at 10 uM by mass spectrophotometric analysis; assay type: ADME, cell-free

Sequence of Plasma kallikrein (P03952 20-390 limits assumed): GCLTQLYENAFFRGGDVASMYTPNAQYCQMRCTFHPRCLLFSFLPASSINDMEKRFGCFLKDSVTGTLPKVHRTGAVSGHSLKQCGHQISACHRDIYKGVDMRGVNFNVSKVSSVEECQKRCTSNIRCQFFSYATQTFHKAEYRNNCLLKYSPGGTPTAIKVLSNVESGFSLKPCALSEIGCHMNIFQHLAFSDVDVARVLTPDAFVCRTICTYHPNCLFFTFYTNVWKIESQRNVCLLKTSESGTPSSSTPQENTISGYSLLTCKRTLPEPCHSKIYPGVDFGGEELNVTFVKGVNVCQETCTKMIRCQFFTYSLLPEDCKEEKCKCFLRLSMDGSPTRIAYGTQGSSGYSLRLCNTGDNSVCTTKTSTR
Sequence of Plasma kallikrein (P03952 391-638 limits assumed): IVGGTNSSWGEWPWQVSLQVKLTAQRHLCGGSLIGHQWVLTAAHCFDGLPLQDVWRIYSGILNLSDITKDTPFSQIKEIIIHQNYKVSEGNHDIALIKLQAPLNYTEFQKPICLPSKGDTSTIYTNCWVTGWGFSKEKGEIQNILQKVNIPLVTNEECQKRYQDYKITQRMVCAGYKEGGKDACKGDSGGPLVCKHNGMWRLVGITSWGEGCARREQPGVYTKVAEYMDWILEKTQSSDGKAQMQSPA

SMILES | Ki (Coagulation factor XII) | inhibition (Homo sapiens) | inhibition (Plasma kallikrein) | 2aPTT (Plasma [1]) | Activity (Plasma [1]) | Activity (Plasma [2]) | half-life at 10 µM [3]
CC(C)C[C@@H]1NC(=O)[C@H](CCC(N)=O)NC(=O)[C@H](CCCNC(=N)N)NC(=O)[C@@H]2CSCCC(=O)N3CN(CN(C3)C(=O)CCSC[C@H](NC(=O)[C@@H](N)CCCNC(=N)N)C(=O)N[C@@H](Cc3ccc(F)cc3)C(=O)N[C@@H](CCCNC(=N)N)C(=O)N[C@@H](CC(C)C)C(=O)N3CCC[C@H]3C(=O)N2)C(=O)CCSC[C@@H](C(=O)N[C@@H](CCCNC(=N)N)C(=O)O)NC(=O)[C@H](CCCNC(=N)N)NC1=O | 0.84 nM | Active | Active | 1.6 µM | Dose-dependent effect | inactive | –
CC(C)C[C@@H]1NC(=O)[C@H](CCC(N)=O)NC(=O)[C@H](CCCNC(=N)N)NC(=O)[C@@H]2CSCCC(=O)N3CN(CN(C3)C(=O)CCSC[C@@H](C(=O)N[C@@H](CCCNC(=N)N)C(=O)O)NC(=O)[C@H](CCCNC(=N)N)NC1=O)C(=O)CCSC[C@H](NC(=O)[C@H](N)CCCCNC(=N)N)C(=O)N[C@@H](Cc1ccccc1)C(=O)N[C@@H](CCCNC(=N)N)C(=O)N[C@@H](CC(C)C)C(=O)N1CCC[C@H]1C(=O)N2 | 8.8 nM | – | – | – | – | – | 5 h
CC(C)C[C@@H]1NC(=O)[C@H](CCC(N)=O)NC(=O)[C@H](CCCNC(=N)N)NC(=O)[C@@H]2CSCCC(=O)N3CN(CN(C3)C(=O)CCSC[C@H](NC(=O)[C@@H](N)CCCNC(=N)N)C(=O)N[C@@H](Cc3ccccc3)C(=O)N[C@@H](CCCNC(=N)N)C(=O)N[C@@H](CC(C)C)C(=O)N3CCC[C@H]3C(=O)N2)C(=O)CCSC[C@@H](C(=O)N[C@@H](CCCNC(=N)N)C(=O)O)NC(=O)[C@H](CCCNC(=N)N)NC1=O | – | Active | Active | 2.9 µM | Dose-dependent effect | inactive | 4 h
CC(C)C[C@@H]1NC(=O)[C@H](CCC(N)=O)NC(=O)[C@H](CCCNC(=N)N)NC(=O)[C@@H]2CSCCC(=O)N3CN(CN(C3)C(=O)CCSC[C@@H](C(=O)N[C@@H](CCCNC(=N)N)C(=O)O)NC(=O)[C@H](CCCNC(=N)N)NC1=O)C(=O)CCSC[C@H](NC(=O)[C@H](N)Cc1ccc(NC(=N)N)cc1)C(=O)N[C@@H](Cc1ccccc1)C(=O)N[C@@H](CCCNC(=N)N)C(=O)N[C@@H](CC(C)C)C(=O)N1CCC[C@H]1C(=O)N2 | 15 nM | – | – | – | – | – | 13 h
CC(C)C[C@@H]1NC(=O)[C@H](CCC(N)=O)NC(=O)[C@H](CCCNC(=N)N)NC(=O)[C@@H]2CSCCC(=O)N3CN(CN(C3)C(=O)CCSC[C@@H](C(=O)N[C@@H](CCCNC(=N)N)C(=O)O)NC(=O)[C@H](CCCNC(=N)N)NC1=O)C(=O)CCSC[C@H](NC(=O)[C@H](N)CCNC(=N)N)C(=O)N[C@@H](Cc1ccccc1)C(=O)N[C@@H](CCCNC(=N)N)C(=O)N[C@@H](CC(C)C)C(=O)N1CCC[C@H]1C(=O)N2 | 14 nM | – | – | – | – | – | 22 h
CC(C)C[C@@H]1NC(=O)[C@H](CCC(N)=O)NC(=O)[C@H](CCCNC(=N)N)NC(=O)[C@@H]2CSCCC(=O)N3CN(CN(C3)C(=O)CCSC[C@@H](C(=O)N[C@@H](CCCNC(=N)N)C(=O)O)NC(=O)[C@H](CCCNC(=N)N)NC1=O)C(=O)CCSC[C@H](NC(=O)[C@H](N)CCCCCN)C(=O)N[C@@H](Cc1ccccc1)C(=O)N[C@@H](CCCNC(=N)N)C(=O)N[C@@H](CC(C)C)C(=O)N1CCC[C@H]1C(=O)N2 | 6.5 nM | – | – | – | – | – | 2 h
